Consider three molecules from paper PMC12444516, “Broad Substrate Specificity and High Catalytic Activity of Sphingomonadaceae PhoK-Type Phosphatases Implicated in Flame-Retardant Degradation” (ACS Omega, 2025).

The subject of data set [1] is T1, Sb-PhoK.
T1 construct: predicted Sec/SPI signal peptide; ~2 Zn per protein
The data set is classed as biochemical, Sphingobium sp. TCM1. Conditions: read-out: p-nitrophenyl phosphate (1) / K m.

The test system of data set [2] is T2, No-PhoK.
T2 construct: predicted Sec/SPI signal peptide
It counts as biochemical, Novosphingobium sp. EMRT-2. The following applies: read-out: p-nitrophenyl phosphate (1) / K m.

Data set [3] has as its system T3, St-PhoK.
T3 construct: predicted Sec/SPI signal peptide; also printed Sp-PhoK
It counts as biochemical, Sphingopyxis terrae. The following applies: read-out: p-nitrophenyl phosphate (1) / K m.

The test system of data set [4] is T4, SmSRS2-PhoK.
T4 construct: predicted Sec/SPI signal peptide; from a smaller PhoK cluster outside the main Sphingomonadaceae cluster
The data set is described as follows: UV/vis, p-nitrophenol release at […] nm, initial rates. It counts as biochemical, Sphingomonas sp. SRS2. Conditions: 50 mM Ches pH 9.0; read-out: p-nitrophenyl phosphate (1) / K m.

Data set [5] has as its system T5, SmTDK1-PhoK.
T5 construct: synthetic codon-optimised gene in pET29a with native stop codon, untagged; E. coli BL21(DE3); ammonium sulfate, Resource Q flow-through, S200; predicted Sec/SPI signal peptide
The data set is classed as biochemical, Sphingomonas sp. TDK1. The following applies: read-out: p-nitrophenyl phosphate (1) / K m.

The subject of data set [6] is Sb-PhoK. Conditions: read-out: phenyl phosphate (2) / K m.
Data set [7] concerns T4, SmSRS2-PhoK. The data set is described as follows: UV/vis, phenol release at […] nm, initial rates. It counts as biochemical, Sphingomonas sp. SRS2. Conditions: 50 mM Ches pH 9.0; read-out: phenyl phosphate (2) / K m.
Data set [8] deals with SmTDK1-PhoK. The following applies: read-out: phenyl phosphate (2) / K m.
The subject of data set [9] is St-PhoK. Conditions: read-out: phenyl phosphate (2) / K m.
In data set [10] the test system is No-PhoK. Conditions: read-out: phenyl phosphate (2) / K m.
Substrate in data set [11]: O=P(O)(O)Oc1ccccc1
The data set is described as follows: purified protein. The data set is classed as biochemical, Sphingomonas sp. Conditions: 50 mM Ches pH 9.0.

Substrate in data set [12]: O=[N+]([O-])c1ccc(OP(=O)(O)O)cc1
The data set is described as follows: purified protein. The following applies: 50 mM Ches pH 9.0.

Read-outs that look alike come from different tables or passages of the source.

Turning to `O=[N+]([O-])c1ccc(OP(=O)(O)O)cc1` [compound 1, p-nitrophenyl phosphate], the Km with Sb-PhoK [1] was determined as 69 ± 2 µM; in the data set with No-PhoK [2] it was 153 ± 5 µM; with St-PhoK [3], 78 ± 3 µM; in the data set on SmSRS2-PhoK [4] it was 88 ± 4 µM; with SmTDK1-PhoK [5], 450 ± 10 µM.
Regarding `O=P(O)(O)Oc1ccccc1` [compound 2, phenyl phosphate], the Km in the data set with Sb-PhoK [6] came to 650 ± 30 µM; in the data set on SmSRS2-PhoK [7], 104 ± 5 µM; with SmTDK1-PhoK [8], 600 ± 20 µM; with St-PhoK [9], 81 ± 5 µM; in the data set on No-PhoK [10] it was 300 ± 20 µM.

B1: Sm-PhoK (Sphingomonas sp.) (protein)
chain: QSPAPAAAPAPAARSIAATPPKLIVAISVDQFSADLFSEYRQYYTGGLKRLTSEGAVFPRGYQSHAATETCPGHSTILTGSRPSRTGIIANNWFDLDAKREDKNLYCAEDESQPGSSSDKYEASPLHLKVPTLGGRMKAANPATRVVSVAGKDRAAIMMGGATADQVWWLGGPQGYVSYKGVAPTPLVTQVNQAFAQRLAQPNPGFELPAQCVSKDFPVQAGNRTVGTGRFARDAGDYKGFRISPEQDAMTLAFAAAAIENMQLGKQAQTDIISIGLSATDYVGHTFGTEGTESCIQVDRLDTELGAFFDKLDKDGIDYVVVLTADHGGHDLPERHRMNAMPMEQRVDMALTPKALNATIAEKAGLPGKKVIWSDGPSGDIYYDKGLTAAQRARVETEALKYLRAHPQVQTVFTKAEIAATPSPSGPPESWSLIQEARASFYPSRSGDLLLLLKPRVMSIPEQAVMGSVATHGSPWDTDRRVPILFWRKGMQHFEQPLGVETVDILPSLAALIKLPVPKDQIDGRCLDLVAGKDDSCAGQ
notes: predicted Sec/SPI signal peptide; binuclear Zn site, nucleophile T89
With B1, in the data set “purified protein [11]”, the Km came out at 600 ± 20 µM; the kcat – broadly, the maximal rate divided by the concentration of active sites – was determined as 1100 ± 10 s⁻¹; the kcat/Km (in general, the turnover number divided by the Michaelis constant) came out at 1.84e+06 ± 60000 M⁻¹ s⁻¹. Besides, the Km in the data set “purified protein [12]” turned out to be 174 ± 4 µM.
